PubChem BioAssay (NCI)
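Growth conditions: 96-well plates. Treatment: test compound, 48 hours, 5 concentrations. Analysis: linear interpolation between bracketing concentrations; unreached endpoints set to highest concentration. Here, GI50 denotes the concentration required for 50% inhibition of growth. The concentration for full growth arrest is given as TGI.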

What was measured:
Assay in all cases: NCI tumour cell line growth inhibition, 48 h
[1] = test system: IGROV1 ovarian
[2] = test system: KM12 colon
[3] = test system: RPMI-8226 leukemia
[4] = test system: HCT-116 colon
[5] = test system: MDA-N
[6] = test system: SN12C renal
[7] = test system: HCT-15 colon
[8] = test system: HOP-92 NSCLC
[9] = test system: U251 CNS
[10] = test system: M14 melanoma
[11] = test system: SW-620 colon
[12] = test system: HL-60(TB) leukemia
[13] = test system: SF-539 CNS
[14] = test system: DLD-1 colon

Compound	TGI [1] [µM]	TGI [2] [µM]	TGI [3] [µM]	TGI [4] [µM]	TGI [5] [µM]	TGI [6] [µM]	TGI [7] [µM]	TGI [8] [µM]	TGI [9] [µM]	TGI [10] [µM]	TGI [11] [µM]	TGI [12] [µM]	TGI [13] [µM]	TGI [14] [µM]	GI50 [1] [µM]	GI50 [4] [µM]	GI50 [9] [µM]	GI50 [10] [µM]	GI50 [11] [µM]	GI50 [13] [µM]
CC(C)(C)C(=O)C(C(c1ccccc1)N1CCOCC1)N1CCOCC1 (stereo unspecified)	> 100	> 100	> 100	> 100	> 100	> 100	> 100	> 100	> 100	> 100	> 100	–	–	–	–	–	–	–	–	–
CC(=O)Oc1ccccc1C(=O)O	–	> 100	> 100	> 100	> 100	> 100	> 100	–	> 100	> 100	> 100	> 100	> 100	–	–	–	–	–	–	–
Cn1c(-c2ccc(/C=N\N3CCN(/N=C/c4ccc(-c5c[n+]6ccsc6n5C)cc4)CC3)cc2)c[n+]2ccsc12	> 100	> 100	89.4	> 100	> 100	> 100	> 100	> 100	> 100	> 100	> 100	48.3	> 100	–	–	–	–	–	–	–
Cc1ccc(-c2csc(=Nc3c(C)n(C)n(-c4ccccc4)c3=O)n2CCO)cc1	–	> 100	> 100	–	> 100	> 100	> 100	> 100	> 100	> 100	–	> 100	> 100	–	–	–	–	–	–	–
CCO[C@]12C[C@H](OC)[C@@]3(O)CC(C1[C@H]3O)C13C4C2[C@H](OC)C1[C@](COC)(CN4CC)[C@H](O)C[C@@H]3OC (stereo partly specified)	> 100	–	> 100	> 100	–	> 100	> 100	–	–	> 100	> 100	> 100	> 100	> 100	–	–	–	–	–	–
COc1cc2c3c(n(CCCNCCCNCCCn4c5c(c6ccccc6c4=O)C(=O)c4ccccc4-5)c(=O)c2cc1OC)-c1cc2c(cc1C3=O)OCO2	> 100	–	–	0.263	–	–	–	–	0.0205	2.15	0.197	–	–	–	< 0.01	< 0.015	< 0.01	0.987	< 0.01	< 0.01
Clc1c(Cl)c2c(Cl)c(Cl)c1C[P+](c1ccccc1)(c1ccccc1)CC[P+](c1ccccc1)(c1ccccc1)Cc1c(Cl)c(Cl)c(c(Cl)c1Cl)C[P+](c1ccccc1)(c1ccccc1)CC[P+](c1ccccc1)(c1ccccc1)C2	12.4	6.12	4.78	9.71	–	15.3	24.6	6.31	12.4	16.2	13.6	–	16.2	13.2	–	–	–	–	–	–
CC(C)[C@](O)(C(=O)OCC1CC[N+]2([O-])CC[C@@H](O)C12)[C@H](C)O (stereo partly specified)	> 375	> 375	> 375	> 256	–	> 375	> 375	> 375	> 375	–	> 375	> 375	> 375	> 375	–	–	–	–	–	–
CCCCN1C(=O)NC(Cc2ccccc2)C1=O (stereo unspecified)	–	> 100	–	–	–	> 100	–	–	> 100	> 100	> 100	–	> 100	> 100	–	–	–	–	–	–
CC#C[I+]c1ccccc1	> 100	40.1	–	35.3	–	25.6	–	30.8	29.1	37.1	–	33.8	35.1	30.2	–	–	–	–	–	–
OCCN(CCO)c1ccc2c(c1)Cc1ccccc1-2	–	> 100	> 100	> 100	> 100	> 100	> 100	73.1	> 100	> 100	> 100	> 100	> 100	–	–	–	–	–	–	–
CCCCCCCCCCCCCCCCOCC(COP(=O)([O-])OCC[N+](C)(C)C)OCCCCCCCCCCCCCCCC (stereo unspecified)	> 100	> 100	> 100	> 100	–	> 100	> 100	> 100	> 100	–	> 100	> 100	> 100	> 100	–	–	–	–	–	–
